Test results taken from US11716992B2, “5A5B6C tricyclic spirolactone derivative, preparation method therefor and use thereof” (NANKAI UNIVERSITY, priority 2017, dated 2023).
Several values for one entry are separate records, joined by “and”; a condition that tells them apart may be missing. Identical values can stand only once. Like-named read-outs stand apart in the source and are kept apart here.

Columns and labels:
Ostrinia furnacalis = assay: Insecticidal activity against Ostrinia furnacalis; type: in vivo; conditions: Ostrinia furnacalis; 100 μg/mL; read-out: insecticidal activity, Ostrinia furnacalis
Rhizoctonia cerealis = assay: Fungicidal activity, fungicide growth rate method, RC; type: cell-based; conditions: Ceratobasidium cereale, 50 μg/mL; read-out: fungicidal activity (growth inhibition rate), RC
Alternaria solani = assay: Fungicidal activity, fungicide growth rate method, AS; type: cell-based; conditions: Alternaria solani, 50 μg/mL; read-out: fungicidal activity (growth inhibition rate), AS
[1] = test system: Phytophthora infestans (Mont.) de Bary; assay: microbe, parasite or virus in culture; type: cell-based; conditions: Phytophthora infestans, read-out: fungicidal activity (growth inhibition rate), PI, 50 μg/mL
wheat Gibberella zeae = assay: microbe, parasite or virus in culture; type: cell-based; conditions: Fusarium graminearum, read-out: fungicidal activity (growth inhibition rate), GZ, 50 μg/mL
Pellicularia sasakii = assay: Fungicidal activity, fungicide growth rate method, PS; type: cell-based; conditions: 50 μg/mL; read-out: fungicidal activity (growth inhibition rate), PS
[2] = test system: Helicoverpa armigera (Hübner); assay: Insecticidal activity against Helicoverpa armigera (Hübner); type: in vivo; conditions: Helicoverpa armigera; 100 μg/mL; read-out: insecticidal activity, Helicoverpa armigera (Hübner)
[3] = test system: Mythimna separate (Walker); assay: Insecticidal activity against Mythimna separate (Walker); type: in vivo; conditions: Mythimna, 100 μg/mL; read-out: insecticidal activity, Mythimna separate (Walker)
Physalospora piricola = assay: Fungicidal activity, fungicide growth rate method, PP; type: cell-based; conditions: 50 μg/mL; read-out: fungicidal activity (growth inhibition rate), PP
Caenorhabditis elegans = assay: Insecticidal activity against Caenorhabditis elegans; type: in vivo; conditions: Caenorhabditis elegans, 100 μg/mL; read-out: insecticidal activity, Caenorhabditis elegans
[4] = test system: Apis mellifera ligustica Spin; conditions: for Death number after 24 h / Death number after 48 h: per replicate of 10 bees
Botrytis cinerea = assay: Fungicidal activity, fungicide growth rate method, BC; type: cell-based; conditions: Botrytis cinerea, 50 μg/mL; read-out: fungicidal activity (growth inhibition rate), BC
Cercospora arachidicola = assay: Fungicidal activity, fungicide growth rate method, CA; type: cell-based; conditions: Mycosphaerella arachidis, 50 μg/mL; read-out: fungicidal activity (growth inhibition rate), CA
Sclerotinia sclerotiorum = assay: Fungicidal activity, fungicide growth rate method, SS; type: cell-based; conditions: Sclerotinia sclerotiorum, 50 μg/mL

Compound	pest or weed control at 100 µg/mL (Ostrinia furnacalis)	inhibition at 50 µg/mL (Rhizoctonia cerealis)	inhibition at 50 µg/mL (Alternaria solani)	inhibition at 50 µg/mL [1]	inhibition at 50 µg/mL (wheat Gibberella zeae)	inhibition at 50 µg/mL (Pellicularia sasakii)	pest or weed control at 100 µg/mL [2]	pest or weed control at 100 µg/mL [3]	inhibition at 50 µg/mL (Physalospora piricola)	pest or weed control at 100 µg/mL (Caenorhabditis elegans)	inhibition at 50 µg/mL (Botrytis cinerea)	inhibition at 50 µg/mL (Cercospora arachidicola)	other results
C=CC[C@@H]1C[C@]2(O)CC(O)O[C@@]23CC=CC[C@H]13 (some centres unmarked) [Zyj07-29]	10%	0%	0%	25%	7%	0%	15%	> 30%	45%	> 30%	27%	5%	Death rate after 48 h (%) ([4]; dosage 3.68 μg a.i./bee): 5.0%; Death number after 24 h ([4]; dosage 3.68 μg a.i./bee): 0; Death number after 48 h ([4]; dosage 3.68 μg a.i./bee): 0 and 1; Death rate after 48 h (%) ([4]; dosage 4.39 μg a.i./bee): 0%; Death number after 24 h ([4]; dosage 4.39 μg a.i./bee): 0; Death number after 48 h ([4]; dosage 4.39 μg a.i./bee): 0
C=CC[C@@H]1C[C@]2(O)CCO[C@@]23CC=CC[C@H]13 [Zyj07-30]	0%	13%	0%	15%	3%	27%	0%	0%	0%	7%	39%	14%	Death rate after 48 h (%) ([4]; dosage 9.77 μg a.i./bee): 15.0%; Death number after 24 h ([4]; dosage 9.77 μg a.i./bee): 0; Death number after 48 h ([4]; dosage 9.77 μg a.i./bee): 1 and 2; Death rate after 48 h (%) ([4]; dosage 19.8 μg a.i./bee): 5.0%; Death number after 24 h ([4]; dosage 19.8 μg a.i./bee): 0; Death number after 48 h ([4]; dosage 19.8 μg a.i./bee): 1 and 0
C=CC[C@@H]1C[C@@]2(OC(C)=O)C[C@@H](CC=C)[C@H]3CC=CC[C@@]32O1 [Zyj07-38]	5%	–	–	–	–	–	10%	15%	–	> 30%	–	> 50%	–
C=CC[C@@H]1C[C@]2(OC(C)=O)C[C@@H](OC(C)=O)O[C@@]23C[C@H]2O[C@H]2C[C@H]13 [Zyj07-65-1]	5%	–	–	–	–	–	10%	25%	–	12%	–	–	Death rate after 48 h (%) ([4]; dosage 7.54 μg a.i./bee): 10.0%; Death number after 24 h ([4]; dosage 7.54 μg a.i./bee): 0 and 1; Death number after 48 h ([4]; dosage 7.54 μg a.i./bee): 0 and 2; Death rate after 48 h (%) ([4]; dosage 18.1 μg a.i./bee): 10.0%; Death number after 24 h ([4]; dosage 18.1 μg a.i./bee): 0 and 1; Death number after 48 h ([4]; dosage 18.1 μg a.i./bee): 0 and 2
C=CC[C@@H]1C[C@@]2(O)C[C@@H](CC=C)[C@H]3CC[C@@H](O)C[C@@]32O1 [Zyj07-69]	10%	–	–	–	–	–	15%	25%	–	10%	–	–	Death rate after 48 h (%) ([4]; dosage 9.71 μg a.i./bee): 5.0%; Death number after 24 h ([4]; dosage 9.71 μg a.i./bee): 0; Death number after 48 h ([4]; dosage 9.71 μg a.i./bee): 0 and 1
C=CC[C@@H]1CC2=CC(=O)O[C@@]23CC=CC[C@H]13 [Zyj07-92]	0%	> 70%	> 60%	15%	–	40%	0%	20%	–	–	30%	–	Death rate after 48 h (%) ([4]; dosage 7.44 μg a.i./bee): 5.0%; Death number after 24 h ([4]; dosage 7.44 μg a.i./bee): 0; Death number after 48 h ([4]; dosage 7.44 μg a.i./bee): 0 and 1; Death rate after 48 h (%) ([4]; dosage 14.3 μg a.i./bee): 5.0%; Death number after 24 h ([4]; dosage 14.3 μg a.i./bee): 0; Death number after 48 h ([4]; dosage 14.3 μg a.i./bee): 0 and 1; inhibition at 50 µg/mL (Sclerotinia sclerotiorum): 38%
O=C1C[C@@]2(O)CC[C@H]3C[C@@H](O)[C@@H](Cl)C[C@@]32O1 [Zyj07-103]	10%	4%	–	42%	47%	0%	15%	> 30%	> 50%	–	27%	38%	–
